In patent US8883766B2, “Ion channel modulators and methods of use” (Vertex Pharmaceuticals Incorporated, priority 2007, dated 2014):

Biological target: T1, NaV1.3 (Homo sapiens, UniProt Q9NY46)
T1 construct: expressed in transfected cells
Assay: VIPR optical membrane potential assay with electrical stimulation, HEK293 cells stably expressing NaV1.3
Assay type: cell-based
Settings: compound activity for the NaV1.3 receptors
Protocol: Compounds of the invention are useful as antagonists of voltage-gated sodium ion channels. Antagonist properties of test compounds were assessed as follows. Cells expressing the NaV of interest were placed into microtiter plates. After an incubation period, the cells were stained with fluorescent dyes sensitive to the transmembrane potential. The test compounds were added to the microtiter plate. The cells were stimulated with either chemical or electrical means to evoke a NaV dependent membrane potential change from unblocked channels, which was detected and measured with trans-membrane potential-sensitive dyes. Antagonists were detected as a decreased membrane potential response to the stimulus. The optical membrane potential assay utilized voltage-sensitive FRET sensors described by Gonzalez and Tsien (See, Gonzalez, J. E. and R. Y. Tsien (1995) “Voltage sensing by fluorescence resonance energy transfer in single cells” Biophys J 69(4): 1272-80, and Gonzalez, J. E. and R. Y. Tsien (1997) “Improved indicators of cell membrane potential that use fluorescence resonance energy transfer” Chem Biol 4(4): 269-77) in combination with instrumentation for measuring fluorescence changes such as the Voltage/Ion Probe Reader (VIPR®) (See, Gonzalez, J. E., K. Oades, et al. (1999) “Cell-based assays and instrumentation for screening ion-channel targets” Drug Discov Today 4(9): 431-439).
The following is an example of how NaV1.3 inhibition activity is measured using the optical membrane potential method #2. Other subtypes are performed in an analogous mode in a cell line expressing the NaV of interest.
HEK293 cells stably expressing NaV1.3 are plated into 96-well microtiter plates. After an appropriate incubation period, the cells are stained with the voltage sensitive dyes CC2-DMPE/DiSBAC2(3) as follows.
2×CC2-DMPE=20 μM CC2-DMPE: 10 mM CC2-DMPE is vortexed with an equivalent volume of 10% pluronic, followed by vortexing in required amount of HBSS containing 10 mM HEPES. Each cell plate will require 5 mL of 2×CC2-DMPE. 50 μL of 2×CC2-DMPE is added to wells containing washed cells, resulting in a 10 μM final staining concentration. The cells are stained for 30 minutes in the dark at RT.
2×DISBAC2(3) with ABSC1=6 μM DISBAC2(3) and 1 mM ABSC1: The required amount of 10 mM DISBAC2(3) is added to a 50 ml conical tube and mixed with 1 μL 10% pluronic for each mL of solution to be made and vortexed together. Then HBSS/HEPES is added to make up 2× solution. Finally, the ABSC1 is added.
The 2×DiSBAC2(3) solution can be used to solvate compound plates. Note that compound plates are made at 2× drug concentration. Wash stained plate again, leaving residual volume of 50 μL. Add 50 μL/well of the 2×DiSBAC2(3) w/ ABSC1. Stain for 30 minutes in the dark at RT.
The electrical stimulation instrument and methods of use are described in ION Channel Assay Methods PCT/US01/21652, herein incorporated by reference. The instrument comprises a microtiter plate handler, an optical system for exciting the coumarin dye while simultaneously recording the coumarin and oxonol emissions, a waveform generator, a current- or voltage-controlled amplifier, and a device for inserting electrodes in well. Under integrated computer control, this instrument passes user-programmed electrical stimulus protocols to cells within the wells of the microtiter plate.
Use the current-controlled amplifier to deliver stimulation wave pulses for 3 s. Two seconds of pre-stimulus recording are performed to obtain the un-stimulated intensities. Five seconds of post-stimulation recording are performed to examine the relaxation to the resting state.
Data are analyzed and reported as normalized ratios of background-subtracted emission intensities measured in the 460 nm and 580 nm channels. Background intensities are then subtracted from each assay channel. […]

T1 sequence (Q9NY46 whole entry): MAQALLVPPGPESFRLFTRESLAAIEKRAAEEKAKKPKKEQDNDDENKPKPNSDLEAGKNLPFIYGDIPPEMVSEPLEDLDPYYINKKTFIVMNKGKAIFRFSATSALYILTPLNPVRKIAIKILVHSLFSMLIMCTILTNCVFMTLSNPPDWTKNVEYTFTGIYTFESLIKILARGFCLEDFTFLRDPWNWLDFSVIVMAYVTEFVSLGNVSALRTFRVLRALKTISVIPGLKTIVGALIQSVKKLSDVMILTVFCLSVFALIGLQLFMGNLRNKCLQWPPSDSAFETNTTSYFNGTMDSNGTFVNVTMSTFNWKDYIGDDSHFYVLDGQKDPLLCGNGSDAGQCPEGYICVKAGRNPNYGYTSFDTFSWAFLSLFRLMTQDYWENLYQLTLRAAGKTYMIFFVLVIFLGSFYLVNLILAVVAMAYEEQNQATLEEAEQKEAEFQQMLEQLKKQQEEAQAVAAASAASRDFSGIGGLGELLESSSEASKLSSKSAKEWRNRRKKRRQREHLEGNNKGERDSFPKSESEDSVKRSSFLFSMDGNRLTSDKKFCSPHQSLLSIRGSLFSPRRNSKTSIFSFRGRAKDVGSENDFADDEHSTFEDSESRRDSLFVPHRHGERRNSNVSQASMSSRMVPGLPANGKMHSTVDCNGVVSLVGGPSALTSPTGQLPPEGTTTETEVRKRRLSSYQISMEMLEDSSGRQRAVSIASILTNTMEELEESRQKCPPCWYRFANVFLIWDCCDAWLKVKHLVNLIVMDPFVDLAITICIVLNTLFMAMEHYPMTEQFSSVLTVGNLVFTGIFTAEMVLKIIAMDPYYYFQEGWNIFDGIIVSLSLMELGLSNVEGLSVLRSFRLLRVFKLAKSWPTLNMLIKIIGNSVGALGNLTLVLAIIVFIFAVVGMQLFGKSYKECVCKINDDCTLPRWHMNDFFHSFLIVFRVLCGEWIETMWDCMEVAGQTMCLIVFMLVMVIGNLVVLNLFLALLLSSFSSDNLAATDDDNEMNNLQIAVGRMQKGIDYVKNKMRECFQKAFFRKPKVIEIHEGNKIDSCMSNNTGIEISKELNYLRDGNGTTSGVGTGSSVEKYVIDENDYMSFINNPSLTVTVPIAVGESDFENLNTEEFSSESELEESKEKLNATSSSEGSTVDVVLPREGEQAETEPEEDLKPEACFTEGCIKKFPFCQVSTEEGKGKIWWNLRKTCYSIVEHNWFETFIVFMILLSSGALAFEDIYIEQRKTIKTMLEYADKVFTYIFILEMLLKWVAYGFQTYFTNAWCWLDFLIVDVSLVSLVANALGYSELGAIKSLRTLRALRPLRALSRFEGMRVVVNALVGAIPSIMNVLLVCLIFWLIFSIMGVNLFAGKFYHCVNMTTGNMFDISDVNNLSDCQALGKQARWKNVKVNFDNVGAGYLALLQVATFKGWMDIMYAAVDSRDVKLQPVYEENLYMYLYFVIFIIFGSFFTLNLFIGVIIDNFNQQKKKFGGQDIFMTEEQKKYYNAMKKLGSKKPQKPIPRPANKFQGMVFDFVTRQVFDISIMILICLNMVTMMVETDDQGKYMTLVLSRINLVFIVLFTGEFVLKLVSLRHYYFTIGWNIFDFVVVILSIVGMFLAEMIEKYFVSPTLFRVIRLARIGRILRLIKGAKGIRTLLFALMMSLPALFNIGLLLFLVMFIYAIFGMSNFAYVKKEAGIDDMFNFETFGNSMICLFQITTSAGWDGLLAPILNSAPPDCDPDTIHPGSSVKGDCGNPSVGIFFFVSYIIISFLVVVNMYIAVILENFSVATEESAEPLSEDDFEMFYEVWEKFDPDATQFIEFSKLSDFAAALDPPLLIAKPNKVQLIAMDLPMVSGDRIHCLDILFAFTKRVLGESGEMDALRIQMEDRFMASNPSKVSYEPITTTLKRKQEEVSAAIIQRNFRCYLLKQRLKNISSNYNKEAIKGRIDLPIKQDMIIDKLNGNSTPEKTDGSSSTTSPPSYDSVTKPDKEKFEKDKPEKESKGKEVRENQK

| IC50 | SMILES |
| --- | --- |
| > 5 µM | COC(=O)NS(=O)(=O)c1ccc(NC(=O)C(C)Oc2cccc(Cl)c2Cl)cc1 (stereo in doubt) [Compound 58, (R)-methyl 4-(2,3-dichlorophenoxy)propanamido) phenylsulfonylcarbamate] |
| > 5 µM | COC(=O)NS(=O)(=O)c1ccc(NC(=O)CCn2ccc3cccc(Cl)c32)cc1 [Compound 1] |
| > 5 µM | COC(=O)NS(=O)(=O)c1ccc(NC(=O)NC2Cc3ccccc3C2)cc1 [Compound 2] |
| > 5 µM | COC(=O)NS(=O)(=O)c1ccc(NC(=O)COc2ccc(F)c(Cl)c2)cc1 [Compound 3] |
| > 5 µM | NC(=O)NS(=O)(=O)c1ccc(NC(=O)CCn2ccc3cc(Cl)ccc32)cc1 [Compound 4] |
| > 5 µM | COC(=O)NS(=O)(=O)c1ccc(NC(=O)[C@H](CC(C)C)N2CCCc3cc(Cl)ccc32)cc1 [Compound 5] |
| < 2 µM | COC(=O)NS(=O)(=O)c1ccc(NC(=O)[C@@H](C)N2CCCc3cc(Cl)ccc32)cc1 [Compound 6, (R)-methyl 4-(2-(6-chloro-3,4-dihydroquinolin-1(2H)-yl)propanamido)phenylsulfonylcarbamate] |
| > 5 µM | COC(=O)NS(=O)(=O)c1ccc(NC(=O)Cn2ccc3ccc(OC)cc32)cc1 [Compound 7] |
| > 5 µM | COC(=O)NS(=O)(=O)c1ccc(NC(=O)Cn2ccc3cc(F)c(F)cc32)cc1 [Compound 8] |
| > 5 µM | COC(=O)NS(=O)(=O)c1ccc(NC(=O)c2ccccc2)cc1 [Compound 9] |
| 2 to 5 µM | COC(=O)NS(=O)(=O)c1ccc(NC(=O)[C@@H](C(C)C)N2CCCc3cc(Cl)ccc32)cc1 [Compound 10] |
| > 5 µM | C[C@H](C(=O)Nc1ccc(S(=O)(=O)NC(=O)C2CCCC2)cc1)n1ccc2c(F)cccc21 [Compound 11, (R)—N-(4-(2-(4-fluoro-1H indol-1-yl)propanamido)phenylsulfonyl)cyclopentanecarboxamide] |
| > 5 µM | COC(=O)NS(=O)(=O)c1ccc(NC(=O)Cn2cc(C)c3ccccc32)cc1 [Compound 12] |
| > 5 µM | C[C@H](C(=O)Nc1ccc(S(=O)(=O)NC(=O)CC(C)(C)C)cc1)n1ccc2c(F)cccc21 [Compound 13] |
| > 5 µM | COC(=O)NS(=O)(=O)c1ccc(NC(=O)Cn2ccc3cc(C)ccc32)cc1 [Compound 14] |
| > 5 µM | COC(=O)NS(=O)(=O)c1ccc(NC(=O)c2cc3c(F)cccc3[nH]2)cc1 [Compound 15] |
| 2 to 5 µM | COC(=O)NS(=O)(=O)c1ccc(NC(=O)[C@@H](C)n2ccc3ccc(Cl)cc32)cc1 [Compound 16] |
| > 5 µM | COC(=O)NS(=O)(=O)c1ccc(NC(=O)[C@H](C)n2ccc3c(F)cccc32)cc1 [Compound 17] |
| > 5 µM | COC(=O)NS(=O)(=O)c1ccc(NC(=O)c2cc3c(F)cc(F)cc3[nH]2)cc1 [Compound 18] |
| > 5 µM | COC(=O)NS(=O)(=O)c1ccc(NC(=O)Cn2cc(C#N)c3ccccc32)cc1 [Compound 19] |
| 2 to 5 µM | COC(=O)NS(=O)(=O)c1ccc(NC(=O)C(C)n2ccc3cc(Cl)ccc32)cc1 (stereo not drawn) [Compound 20] |
| > 5 µM | C[C@H](C(=O)Nc1ccc(S(=O)(=O)NC(=O)C2CC2)cc1)n1ccc2c(F)cccc21 [Compound 21] |
| < 2 µM | COC(=O)NS(=O)(=O)c1ccc(NC(=O)[C@@H](C)N2CCCc3cc(Cl)c(C)cc32)cc1 [Compound 22] |
| < 2 µM | COC(=O)NS(=O)(=O)c1ccc(NC(=O)[C@@H](CC(C)C)n2ccc3c(F)cccc32)cc1 [Compound 23, (R)-methyl 4-(2-(4-fluoro-1H-indol-1-yl)-4-methylpentanamido) phenylsulfonylcarbamate] |
| > 5 µM | COC(=O)NS(=O)(=O)c1ccc(NC(=O)[C@H](C(C)C)N2CCCc3cc(Cl)ccc32)cc1 [Compound 24] |

| IC50 | SMILES |
| --- | --- |
| > 5 µM | COC(=O)NS(=O)(=O)c1ccc(NC(=O)[C@H](C)n2ccc3ccc(C(F)(F)F)cc32)cc1 [Compound 25] |
| > 5 µM | COC(=O)NS(=O)(=O)c1ccc(NC(=O)Cn2ccc3cc(Cl)ccc32)cc1 [Compound 26] |
| > 5 µM | COC(=O)NS(=O)(=O)c1ccc(NC(=O)Cn2ccc3cc(F)ccc32)cc1 [Compound 27] |
| > 5 µM | COC(=O)NS(=O)(=O)c1ccc(NC(=O)Cn2ccc3cccc(Cl)c32)cc1 [Compound 28] |
| > 5 µM | COC(=O)NS(=O)(=O)c1ccc(NC(=O)NCc2ccc(Cl)c(Cl)c2)cc1 [Compound 30, methyl 4-(3(3,4-dichlorobenzyl)ureido)phenylsulfonylcarbamate] |
| > 5 µM | CNC(=O)NS(=O)(=O)c1ccc(NC(=O)[C@@H](C)n2ccc3c(F)cccc32)cc1 [Compound 31, (R)-2-(4-fluoro-1H indol-1-yl)-N-(4-(N-(methylcarbamoyl)sulfamoyl)phenyl)propanamide] |
| > 5 µM | COC(=O)NS(=O)(=O)c1ccc(C2CCN(C(=O)Cn3ccc4ccc(Cl)cc43)CC2)cc1 [Compound 32] |
| > 5 µM | COC(=O)NS(=O)(=O)c1ccc(NC(=O)Cn2c(C)cc3cc(Cl)ccc32)cc1 [Compound 33] |
| < 2 µM | COC(=O)NS(=O)(=O)c1ccc(NC(=O)[C@@H](C)n2ccc3c(F)cccc32)cc1 [Compound 34] |
| > 5 µM | COC(=O)NS(=O)(=O)c1ccc(NC(=O)C(C)Oc2ccc(Cl)cc2C)cc1 (stereo not drawn) [Compound 35] |
| > 5 µM | COC(=O)NS(=O)(=O)c1ccc(NC(=O)[C@@H](C)n2ccc3cccc(F)c32)cc1 [Compound 36] |
| > 5 µM | COC(=O)NS(=O)(=O)c1ccc(NC(=O)CCCOc2ccc(Cl)cc2Cl)cc1 [Compound 37] |
| > 5 µM | COC(=O)NS(=O)(=O)c1ccc(NC(=O)C2(c3ccc4c(c3)OCO4)CC2)cc1 [Compound 38] |
| > 5 µM | COC(=O)NS(=O)(=O)c1ccc(NC(=O)Cn2ccc3ccc(C(F)(F)F)cc32)cc1 [Compound 39] |
| 2 to 5 µM | COC(=O)NS(=O)(=O)c1ccc(NC(=O)[C@@H](C)n2ccc3ccccc32)cc1 [Compound 40] |
| > 5 µM | CCOC(=O)NS(=O)(=O)c1ccc(N2CCN(C(=O)[C@@H](C)N3CCCc4cc(F)ccc43)CC2)cc1 [Compound 41, (R)-ethyl 4-(4-(2-(6-fluoro-3,4-dihydroquinolin-1(2H)-yl)propanoyl)piperazin-1-yl)phenylsulfonylcarbamate] |
| > 5 µM | C[C@H](C(=O)Nc1ccc(S(=O)(=O)NC(=O)C2CCC2)cc1)n1ccc2c(F)cccc21 [Compound 42] |
| > 5 µM | CCOC(=O)NS(=O)(=O)c1ccc(NC(=O)[C@@H](C)n2ccc3c(F)cccc32)cc1 [Compound 43, (R)-Ethyl 4-(2-(4-fluoro-1H-indol-1-yl)propanamido)phenylsulfonyl-carbamate] |
| > 5 µM | COC(=O)NS(=O)(=O)c1ccc(NC(=O)Cn2ccc3c(C#N)cccc32)cc1 [Compound 44] |
| > 5 µM | CC(=O)NS(=O)(=O)c1ccc(N)cc1 [Compound 45] |
| > 5 µM | CCC(=O)NS(=O)(=O)c1ccc(NC(=O)C(C)n2ccc3ccccc32)cc1 (stereo not drawn) [Compound 46] |
| > 5 µM | COC(=O)NS(=O)(=O)c1ccc(NC(=O)[C@@H](C)N2CCCc3ccccc32)cc1 [Compound 47] |
| > 5 µM | COC(=O)NS(=O)(=O)c1ccc(NC(=O)CCc2ccc(OC)cc2)cc1 [Compound 48] |
| > 5 µM | COc1ccccc1C(=O)NS(=O)(=O)c1ccc(NC(=O)COc2ccnc3c(C(F)(F)F)cccc23)cc1 [Compound 49] |
| > 5 µM | COC(=O)NS(=O)(=O)c1ccc(N2CCN(C(=O)[C@@H](C)N3CCCc4cc(Cl)ccc43)CC2)cc1 [Compound 50] |

| SMILES | IC50 |
| --- | --- |
| C[C@H](C(=O)Nc1ccc(S(=O)(=O)NC(=O)Oc2ccc(F)cc2)cc1)n1ccc2c(F)cccc21 [Compound 29] | > 5 µM |
